The text below walks through data of patent publication US10709692B2, “Isoxazolidine derived inhibitors of receptor interacting protein kinase 1 (RIPK1)” (Denali Therapeutics Inc., priority 2015, dated 2020).

The structures appear in SMILES notation. Values joined by “and” are separate entries in the source; they are usually repeats but may differ in a detail not shown here. Identical values can stand only once. Some results are limits rather than exact numbers.

For data set [1], the target named is T1, receptor interacting protein kinase 1 (GST-hRIPK1 (8-327)) (Homo sapiens, UniProt Q13546).
T1 construct: GST-hRIPK1 (8-327) enzyme was generated by Proteros GmbH by Baculovirus expression system
T1 sequence (Q13546 8-327): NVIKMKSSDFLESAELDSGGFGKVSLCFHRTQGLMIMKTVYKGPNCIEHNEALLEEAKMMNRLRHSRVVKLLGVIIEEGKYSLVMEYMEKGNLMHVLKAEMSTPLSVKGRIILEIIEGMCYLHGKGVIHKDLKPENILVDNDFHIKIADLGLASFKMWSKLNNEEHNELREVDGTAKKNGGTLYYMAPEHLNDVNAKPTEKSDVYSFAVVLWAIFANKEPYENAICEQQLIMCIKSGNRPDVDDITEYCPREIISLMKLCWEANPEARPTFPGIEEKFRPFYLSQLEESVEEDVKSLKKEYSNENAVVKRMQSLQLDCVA
Kind of data set: ADP-Glo luminescence assay, RIPK1 autophosphorylation. The format is biochemical. The following applies: 1.5 μg/mL GST-hRIPK1 (8-327), 50 μM ATP, 3 hours at room temperature. The procedure:
Compound potency at receptor interacting protein kinase 1 and selectivity at receptor interacting protein kinase 2 and receptor interacting protein kinase 3 was determined in autophosphorylation mode, using an ADP-Glo luminescence assay, which measures the conversion of ATP to ADP.
(§1) GST-hRIPK1 (8-327) enzyme was generated by Proteros GmbH by Baculovirus expression system. GST-hRIPK2 (1-299) and GST-hRIPK3 (1-518) enzymes were purchased from SignalChem. Test compounds were diluted in DMSO and 0.1 μL of solution was dispensed to each well of a 384-well white solid microplates. The assay buffer was 50 mM HEPES pH 7.5, 50 mM NaCl, 30 mM MgCl2. The buffer was supplemented with 0.02% CHAPS, 0.01% of Pluronic F127, 0.1 mg/mL BSA and 1 mM DTT. Only for receptor interacting protein kinase 1 5 mM MnCl2, was included in the assay buffer on the day of the experiment. The enzymatic reaction consisted of 1.5 μg/mL GST-hRIPK1 (8-327) and 50 μM ATP for receptor interacting protein kinase 1, 0.4 μg/mL GST-hRIPK2 (1-299) and 150 μM ATP, 0.4 μg/mL GST-hRIPK3 (1-518) and 15 μM ATP. 5 μL of enzyme and 5 μL of ATP were added to the plate at twice the final assay concentration and incubated at room temperature for 3 hours. Following this reaction, 10 μL of ADP-Glo reagent (Promega) was added to each well and incubated for 40 minutes at room temperature. This stops the kinase reaction and depletes any remaining ATP. 20 μL of ADP-Glo detection reagent was then added to each well and incubated at room temperature for at least 15 minutes. The detection reagent converts ADP to ATP and introduces luciferase and luciferin to detect ATP. The luminescence is then measured with the Envision (PerkinElmer) plate reader. Test compound inhibition was expressed as percent inhibition of internal assay controls. For concentration response curves, normalized data is fit and pIC50 determined using XL-fit (IDBS) for Excel. The pIC50 were averaged to determine a mean value, for a minimum of two independent experiments.
Certain compounds were tested in the following. Compound potency at receptor interacting protein kinase 1 and selectivity at receptor interacting protein kinase 2 and receptor interacting protein kinase 3 was determined in autophosphorylation mode, using an ADP-Glo luminescence assay (Berger S. B. et al. (2015) Cell Death Discovery, 1: 15009), which measures the conversion of ATP to ADP.
GST-hRIPK1 (8-327) enzyme was generated by Proteros GmbH by Baculovirus expression system.
as §1, with “Test” for “GST-hRIPK1 (8-327) enzyme was generated by Proteros GmbH by Baculovirus expression system. GST-hRIPK2 (1-299) and GST-hRIPK3 (1-518) enzymes were purchased from SignalChem. Test”, “microplate.” for “microplates.”, “comprised” for “consisted of”, “1” for “1, 0.4 μg/mL GST-hRIPK2 (1-299) and 150 μM ATP, 0.4 μg/mL GST-hRIPK3 (1-518)”, “IC50” for “pIC50”, “experiments. […]” for “experiments.”
On the technique in general: ADP-Glo first removes unused ATP, then detects ADP through luciferase.

Data set [2] concerns the target T1, receptor interacting protein kinase 1 (GST-hRIPK1 (8-327)). As to the kind of experiment: Fluorescent Polarization Binding (FP Binding) assay. Conditions: 10 nM GST-hRIPK1 (8-327), 5 nM fluorescent-labeled ligand, 30 min at RT. The method in brief:
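Displacement of 5 nM fluorescent ligand from 10 nM GST-hRIPK1 (8-327), 30 min at room temperature in pH 7.5 HEPES buffer, 1% DMSO. Fluorescence polarization read (ex 531/em 595 nm); IC50 fitted from percent inhibition and averaged over at least two independent experiments.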

For `O=C(Nc1ccccc1)N1OCC[C@H]1c1ccccc1` [Compound 4, (3S)—N,3-diphenyl-1,2-oxazolidine-2-carboxamide], the IC50 in data set [1] and in data set [2] was under 1000 nM throughout.

`CC1(C(=O)N2OCC[C@H]2c2ccccc2)COC1` [Compound 8, (3S)-2-(3-Methyloxetane-3-carbonyl)-3-phenyl-1,2-oxazolidine]: the IC50 in data set [1] and in data set [2] was under 1000 nM in each case.

As to `O=C(C1CC1)N1OCC[C@H]1c1ccccc1` [Compound 12, (3S)-2-Cyclopropanecarbonyl-3-phenyl-1,2-oxazolidine], the IC50 in data set [1] and in data set [2] was under 1000 nM throughout.

Take `N#CC1(C(=O)N2OCC[C@H]2c2ccccc2)CC1` [Compound 16, 1-[(3S)-3-phenyl-1,2-oxazolidine-2-carbonyl]cyclopropane-1-carbonitrile]: the IC50 in data set [1] and in data set [2] was under 1000 nM each time.

For the molecule `CC(C)(C#N)C(=O)N1OCC[C@H]1c1ccccc1` [Compound 17, 2,2-Dimethyl-3-oxo-3-[(3S)-3-phenyl-1,2-oxazolidin-2-yl]propanenitrile], the IC50 in data set [1] and in data set [2] was under 1000 nM in each case.

For `O=C(c1onc2ccccc12)N1OCC[C@H]1c1ccccc1` [Compound 18, 3-[(3S)-3-phenyl-1,2-oxazolidine-2-carbonyl]-2,1-benzoxazole], the IC50 in data set [1] and in data set [2] was under 1000 nM in each case.

Turning to `CC(C)(O)C(=O)N1OCC[C@H]1c1ccccc1` [Compound 19, 2-Hydroxy-2-methyl-1-[(3S)-3-phenyl-1,2-oxazolidin-2-yl]propan-1-one], the IC50 in data set [1] and in data set [2] was under 1000 nM in each case.

Consider `CC1(C(=O)N2OCC[C@H]2c2ccccc2)CC1` [Compound 20, (3S)-2-(1-Methylcyclopropanecarbonyl)-3-phenyl-1,2-oxazolidine], for which the IC50 in data set [1] and in data set [2] was under 1000 nM each time.

For the molecule `CC(C)C(=O)N1OCC[C@H]1c1ccc(F)cc1` [Compound 64, 1-[(3S)-3-(4-Fluorophenyl)-1,2-oxazolidin-2-yl]-2-methylpropan-1-one], the concentration for half-maximal inhibition (IC50) in data set [1] and in data set [2] was under 1000 nM each time.

With `CC1(C(=O)N2OCC[C@H]2c2ccccc2)CCOCC1` [Compound 69, (3S)-2-(4-methyloxane-4-carbonyl)-3-phenyl-1,2-oxazolidine], the IC50 in data set [1] and in data set [2] was under 1000 nM in each case.

On to `CC(C)(C)C(=O)N1OCCC1c1ccc(F)nc1` (centres unmarked) [Compound 70], for which the half-maximal inhibitory concentration (IC50) in data set [1] and in data set [2] was under 1000 nM each time.

With `CC(C)(C)C(=O)N1OCC[C@@H]1c1ccccc1F` [Compound 71], the IC50 in data set [1] and in data set [2] was under 1000 nM throughout.

In the case of `CC(C)(C)C(=O)N1OCC[C@H]1c1ccccc1F` [Compound 72], the concentration for half-maximal inhibition (IC50) in data set [1] and in data set [2] was under 1000 nM in each case.

Regarding `CC1(C(=O)N2OCC[C@H]2c2ccccc2)CCC1` [Compound 77, (3S)-2-(1-Methylcyclobutane-carbonyl)-3-phenyl-1,2-oxazolidine], the IC50 in data set [1] and in data set [2] was under 1000 nM each time.

`CC(C)C(=O)N1OCC[C@H]1c1ccccc1` [Compound 78, 2-Methyl-1-[(3S)-3-phenyl-1,2-oxazolidin-2-yl]propan-1-one]: the 50% inhibitory concentration (IC50) in data set [1] and in data set [2] was under 1000 nM in each case.

In the case of `N#CC1(C(=O)N2OCC[C@H]2c2ccccc2)CCC1` [Compound 79, 1-[(3S)-3-Phenyl-1,2-oxazolidine-2-carbonyl]cyclobutane-1-carbonitrile], the half-inhibitory concentration (IC50) in data set [1] and in data set [2] was under 1000 nM throughout.

Consider `COC(C)(C)C(=O)N1OCC[C@H]1c1ccccc1` [Compound 80, 2-Methoxy-2-methyl-1-[(3S)-3-phenyl-1,2-oxazolidin-2-yl]propan-1-one], for which the IC50 in data set [1] and in data set [2] was under 1000 nM throughout.

Regarding `CC(C)(C)C(=O)N1OCCC1c1cccnc1F` (centres unmarked) [Compound 81, 1-(3-(2-fluoropyridin-3-yl)isoxazolidin-2-yl)-2,2-dimethylpropan-1-one], the IC50 in data set [1] and in data set [2] was under 1000 nM in each case.

For the molecule `CC(C)(C)C(=O)N1OCC[C@H]1c1ccc(C#N)cc1` [Compound 87, 4-[(3S)-2-(2,2-dimethylpropanoyl)-1,2-oxazolidin-3-yl]benzonitrile], the half-maximal inhibitory concentration (IC50) in data set [1] and in data set [2] was under 1000 nM each time.

`CC(C)(C(=O)N1OCC[C@H]1c1ccc(C#N)cc1)C(F)F` [Compound 88, 4-[(3S)-2-(3,3-difluoro-2,2-dimethylpropanoyl)-1,2-oxazolidin-3-yl]benzonitrile]: the IC50 in data set [1] is under 1000 nM; in data set [2], < 1000 nM and 16 nM.

For `CC(C)(C(=O)N1OCC[C@H]1c1ccc(F)cc1)C(F)F` [Compound 101, 3,3-difluoro-1-[(3S)-3-(4-fluorophenyl)-1,2-oxazolidin-2-yl]-2,2-dimethylpropan-1-one], the concentration for half-maximal inhibition (IC50) in data set [1] is under 1000 nM; in data set [2], < 1000 nM and 8 nM.

Turning to `CC(C)(C)C(=O)N1OCC[C@H]1c1cncc(C#N)c1` [Compound 108, 5-[(3S)-2-(2,2-dimethylpropanoyl)-1,2-oxazolidin-3-yl]pyridine-3-carbonitrile], the IC50 in data set [1] and in data set [2] was under 1000 nM throughout.

`CC(C)(C(=O)N1OCC[C@H]1c1ccc(/C(N)=N/O)cc1)C(F)F` [Compound 206, (Z)-4-[(3S)-2-(3,3-Difluoro-2,2-dimethylpropanoyl)-1,2-oxazolidin-3-yl]-N′-hydroxybenzene-1-carboximidamide] registered a melting point of 67.3 to 75.6 °C. In addition, in data set [2], the half-inhibitory concentration (IC50) was 1000 to 10000 nM.

In turn, `CC(C)(C(=O)N1OCC[C@H]1c1ccc(-c2ncon2)cc1)C(F)F` [Compound 207, 3,3-difluoro-2,2-dimethyl-1-[(3S)-3-[4-(1,2,4-oxadiazol-3-yl)phenyl]-1,2-oxazolidin-2-yl]propan-1-one] yielded a melting point of 87.9 to 88.9 °C. The half-maximal inhibitory concentration (IC50) in data set [2] is under 1000 nM.

`CC(C)(C(=O)N1OCC[C@H]1c1ccc(-c2noc(C3CC3)n2)cc1)C(F)F` [Compound 208, 1-[(3S)-3-[4-(5-cyclopropyl-1,2,4-oxadiazol-3-yl)phenyl]-1,2-oxazolidin-1-yl]-3,3-difluoro-2,2-dimethylpropan-1-one] yielded a melting point of 92.1 to 95.6 °C. This molecule displayed an IC50 in data set [2] of under 1000 nM.

In general, IC50 refers to the concentration needed to halve the response being measured. Usually melting point stands for the temperature, or range, at which the solid turns liquid.
